The source of these data is US20110098325A1, “PYRIDINE BENZAMIDES AND PYRAZINE BENZAMIDES USED AS PKD INHIBITORS” (CANCER RESEARCH TECHNOLOGY LIMITED, priority 2006, published 2011).

The structures appear in SMILES notation.

For this test, the target named is T1, Murine PKD1 kinase domain (Mus musculus, UniProt Q62101).
T1 construct: hexahistidine (pFastBac HTb leader) (N); made in house; host or cells: Sf9 insect cells, baculovirus (Bac-to-Bac HT, pFastBac HTb)
T1 sequence (Q62101 with tags, fused parts or gaps R683W): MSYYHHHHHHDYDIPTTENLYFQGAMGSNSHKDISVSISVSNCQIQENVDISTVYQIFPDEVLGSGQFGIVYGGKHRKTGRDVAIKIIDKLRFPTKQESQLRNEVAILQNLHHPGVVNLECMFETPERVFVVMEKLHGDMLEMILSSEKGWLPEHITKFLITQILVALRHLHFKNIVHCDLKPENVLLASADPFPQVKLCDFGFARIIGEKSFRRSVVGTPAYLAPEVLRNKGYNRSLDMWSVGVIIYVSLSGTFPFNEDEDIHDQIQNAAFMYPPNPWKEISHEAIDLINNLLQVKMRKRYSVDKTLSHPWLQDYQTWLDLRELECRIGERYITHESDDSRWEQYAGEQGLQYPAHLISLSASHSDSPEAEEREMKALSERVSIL
The test is described as follows: PKD1 (Murine Kinase Domain) Enzyme Activity Assay (IMAP fluorescence polarisation). In kind it is biochemical. To be noted: 10 μM ATP, 60 minutes, room temperature. The text has this: The DNA sequence corresponding to murine PKD1 (see FIG. 1) was inserted into pFastBAc Htb (Invitrogen, USA) at BamH1 and EcoR1 sites using standard molecular biology techniques.
The PKD1 described above was expressed as a hexahistidine tagged protein construct using a commercially available baculoviral expression system that induces protein production in insect cell culture (Bac-to-Bac® HT Baculovirus Expression System, Invitrogen). Protein was typically expressed by inoculating 1 L of sf9 cells with a genetically modified baculovirus containing the gene for the kinase domain of PKD1. Sf9 cells were obtained from ICR Ltd.
Purification of PKD1 was achieved by standard chromatographic procedures. Capture from crude centrifuged lysed cell supernatant was achieved using metal affinity chromatography (GE Healthcare Life Sciences, HiTrap Chelating chromatography column), and fractions showing PKD1 (as assessed by gel electrophoresis and western blot) were further purified by a single polish purification step performed using a mono Q anion exchange chromatography system (GE Healthcare Life Sciences, HiTrap HP Q column). […] This protocol describes the method for screening compounds as inhibitors of Protein Kinase D activity in a 384 well microplate format fluorescence polarisation IMAP assay performed using the Biomek FX.
Kinase Enzyme: Murine PKD1 kinase domain at ˜100 μg/mL, was purified from baculovirus (as described above), obtained from aliquots stored at −70° C. PKD was prepared with a final concentration of 0.1 μg/mL by diluting 1:300 in Reaction Buffer (30 μL per 9 mL-5 mL per plate with an additional 4 mL dead volume) and vortexing prior to use. It was necessary to check this concentration regularly in case of enzyme degradation.
(also known as MAPKAP K2 substrate) was obtained from Molecular Devices (Product code R7127). It was used at 300 nM by diluting 20 μM stock 1:66 in Kinase/Reaction Buffer (135 μL per 9 mL; 75 μL per 5 mL Reaction Buffer for blank wells requiring <1 mL per place with an additional 4 mL dead volume).
A 1 mM ATP stock in Reaction Buffer was prepared from a 10 mM stock in 20 mM NaOH and stored as aliquots at −70° C. It was used at 40 μM by diluting 1 mM stock 1:25 in Reaction Buffer (240 μL per 6 mL-2 mL per plate with an additional 4 mL dead volume) and vortexing prior to use.
IMAP Reagents: IMAP Binding Reagent (product code R7207) and Binding Buffer (product code R7208) were obtained from Molecular Devices and stored at +4° C. The beads were gently re-suspended before diluting by 1:400 in buffer (Binding Buffer is supplied as a 5× stock and so was diluted with water prior to use) and then vortexing before addition to wells. 16 mL water with 4 mL Binding Buffer and 50 μL Binding Reagent were used per plate (17 mL per plate with an additional 3 mL dead volume).
13 μL Substrate in Reaction Buffer was added to ‘blank’ wells to give 200 nM reaction concentration. […] 2 μL 10% DMSO/water was added to ‘blank’ and ‘control’ wells. 5 μL ATP in Reaction Buffer was added to all wells to give 10 μM reaction concentration. The reaction mixture was then incubated at room temperature for 60 minutes. The incubation period was followed by the addition of 40 μL IMAP Binding Reagent in Binding Buffer to all wells. The reaction was then further incubated at room temperature for […].
Percentage inhibition was calculated based on activity of the test sample minus the average values in the blank wells relative to the average values measured in control wells minus the average values in the blank wells.
IC50 values were calculated from 10 point dose sigmoid ‘dose-response’ curves using Xlfit software (IDBS inc, USA). Data were fitted to a 4 parameter logistic model/sigmoidal dose response:
where: A=fit minimum (locked to 0); B=fit maximum (locked to 100); C=fit midpoint (pre-fit to 1); D=slope at linear portion of curve, hillslope (pre-fit to 0.1)
Background: In fluorescence polarisation assays a small probe gives low polarisation when free and higher when bound to something large.
On to `CN1CCN(C(=O)c2cccc(-c3cnc(N)c(-c4cccc5c4oc4ccccc45)n3)c2)CC1` [X-008, [3-(5-Amino-6-dibenzofuran-4-yl-pyrazin-2-yl)-phenyl]-(4-methyl-piperazin-1-yl)-methanone], for which the IC50 (usually the concentration that gives 50% inhibition) was < 1000 nM.

As for `NC(=O)c1cccc(-c2cnc(N)c(-c3cccc4ncccc34)c2)c1` [Y-021, 3-(6-Amino-5-quinolin-5-yl-pyridin-3-yl)-benzamide], the IC50 lay in the range of 1000 to 10000 nM. As for `CN(C)CCNC(=O)c1cccc(-c2cnc(N)c(-c3ccc(F)c(F)c3)c2)c1` [Y-033, 3-[6-Amino-5-(3,4-difluoro-phenyl)-pyridin-3-yl]-N-(2-dimethylamino-ethyl)-benzamide], the figure is < 1000 nM. On to `CN(C)CCNC(=O)c1cccc(-c2cnc(N)c(-c3ccc4[nH]ccc4c3)c2)c1` [Y-026, 3-[6-Amino-5-(1H-indol-5-yl)-pyridin-3-yl]-N-(2-dimethylamino-ethyl)-benzamide], for which the IC50 is < 1000 nM. As for `COc1ccc(-c2cc(-c3cccc(C(=O)NCCN(C)C)c3)cnc2N)cn1` [Y-008, 3-(2-Amino-6′-methoxy-[3,3′]bipyridinyl-5-yl)-N-(2-dimethylamino-ethyl)-benzamide], the figure is 1000 to 10000 nM; as for `CN(C)CCNC(=O)c1cccc(-c2cnc(N)c(-c3ccc(-c4ccccc4)cc3)c2)c1` [Y-014, 3-(6-Amino-5-biphenyl-4-yl-pyridin-3-yl)-N-(2-dimethylamino-ethyl)-benzamide], < 1000 nM; as for `CN(C)CCNC(=O)c1cccc(-c2cnc(N)c(-c3ccc4c(c3)OCO4)c2)c1` [Y-010, 3-(6-Amino-5-benzo[1,3]dioxol-5-yl-pyridin-3-yl)-N-(2-dimethylamino-ethyl)-benzamide], < 1000 nM.

For the molecule `CN(C)CCNC(=O)c1cccc(-c2cnc(N)c(-c3cccc4c3sc3ccccc34)c2)c1` [Y-015, 3-(6-Amino-5-dibenzothiophen-4-yl-pyridin-3-yl)-N-(2-dimethylamino-ethyl)-benzamide], the IC50 was < 1000 nM. For `CN(C)CCNC(=O)c1cccc(-c2cnc(N)c(-c3ccc(Cl)nc3)c2)c1` [Y-006, 3-(2-Amino-6′-chloro-[3,3′]bipyridinyl-5-yl)-N-(2-dimethylamino-ethyl)-benzamide] the value was 1000 to 10000 nM; for `COc1cc(-c2cc(-c3cccc(C(=O)NCCCN(C)C)c3)cnc2N)ccc1O` [Y-060, 3-[6-Amino-5-(4-hydroxy-3-methoxy-phenyl)-pyridin-3-yl]-N-(3-dimethylamino-propyl)-benzamide], < 1000 nM.

As for `COC(=O)c1ccc(-c2cc(-c3cccc(C(=O)NCCN(C)C)c3)cnc2N)cc1OC` [Y-066, 4-{2-Amino-5-[3-(2-dimethylamino-ethylcarbamoyl)-phenyl]-pyridin-3-yl}-2-methoxy-benzoic acid methyl ester], the IC50 is < 1000 nM. As for `COCc1cccc(-c2cc(-c3cccc(C(=O)NCCN(C)C)c3)cnc2N)c1` [Y-047, 3-[6-Amino-5-(3-methoxymethyl-phenyl)-pyridin-3-yl]-N-(2-dimethylamino-ethyl)-benzamide], the IC50 lay within 1000 to 10000 nM. `COc1ccccc1-c1cc(-c2cccc(C(=O)N3CCN(C)CC3)c2)cnc1N` [Y-003, {3-[6-Amino-5-(2-methoxy-phenyl)-pyridin-3-yl]-phenyl}-(4-methyl-piperazin-1-yl)-methanone] showed an IC50 of 1000 to 10000 nM. Take `CN(C)CCNC(=O)c1cccc(-c2cnc(N)c(-c3ccoc3)c2)c1` [Y-017, 3-(6-Amino-5-furan-3-yl-pyridin-3-yl)-N-(2-dimethylamino-ethyl)-benzamide]: the IC50 is < 1000 nM. For `COc1cc(-c2cc(-c3cccc(C(N)=O)c3)cnc2N)ccc1F` [Y-055, 3-[6-Amino-5-(4-fluoro-3-methoxy-phenyl)-pyridin-3-yl]-benzamide] the value was < 1000 nM.

On to `CN(C)CCNC(=O)c1cccc(-c2cnc(N)c(-c3ccc(OC(F)(F)F)cc3)c2)c1` [Y-064, 3-[6-Amino-5-(4-trifluoromethoxy-phenyl)-pyridin-3-yl]-N-(2-dimethylamino-ethyl)-benzamide], for which the IC50 was < 1000 nM. On to `CN(C)CCNC(=O)c1cccc(-c2cnc(N)c(-c3ccc4[nH]ncc4c3)c2)c1` [Y-094, 3-[6-Amino-5-(1H-indazol-5-yl)-pyridin-3-yl]-N-(2-dimethylamino-ethyl)-benzamide], for which the IC50 was < 1000 nM. In the case of `COc1cccc(-c2cc(-c3cccc(C(=O)NCCN(C)C)c3)cnc2N)c1` [Y-048, 3-[6-Amino-5-(3-methoxy-phenyl)-pyridin-3-yl]-N-(2-dimethylamino-ethyl)-benzamide], the IC50 is < 1000 nM.

`COc1cccc(-c2cc(-c3cccc(C(=O)N(C)CCN(C)C)c3)cnc2N)c1` [Y-075, 3-[6-Amino-5-(3-methoxy-phenyl)-pyridin-3-yl]-(2-dimethylamino-ethyl)-N-methyl-benzamide]: the IC50 was < 1000 nM. Consider `CN(C)CCNC(=O)c1cccc(-c2cnc(N)c(-c3ccc(-c4ccccc4)cc3F)c2)c1` [Y-045, 3-[6-Amino-5-(3-fluoro-biphenyl-4-yl)-pyridin-3-yl]-N-(2-dimethylamino-ethyl)-benzamide], for which the IC50 is < 1000 nM. Consider `Cc1ccc(-c2cc(-c3cccc(C(=O)NCCN(C)C)c3)cnc2N)cc1F` [Y-044, 3-[6-Amino-5-(3-fluoro-4-methyl-phenyl)-pyridin-3-yl]-N-(2-dimethylamino-ethyl)-benzamide], for which the IC50 is < 1000 nM. As to `COc1cc(-c2cc(-c3cccc(C(=O)NCCN(C)C)c3)cnc2N)cc(OC)c1OC` [Y-088, 3-[6-Amino-5-(3,4,5-trimethoxy-phenyl)-pyridin-3-yl]-N-(2-dimethylamino-ethyl)-benzamide], the IC50 was < 1000 nM. In the case of `COc1ncc(-c2cc(-c3cccc(C(=O)NCCN(C)C)c3)cnc2N)c(OC)n1` [Y-029, 3-[6-Amino-5-(2,4-dimethoxy-pyrimidin-5-yl)-pyridin-3-yl]-N-(2-dimethylamino-ethyl)-benzamide], the IC50 is < 1000 nM.

`COc1cccc(-c2cc(-c3cccc(C(=O)NC(C)CN(C)C)c3)cnc2N)c1` (stereo not drawn) [Y-092, 3-[6-Amino-5-(3-methoxy-phenyl)-pyridin-3-yl]-N-(2-dimethylamino-1-methyl-ethyl)-benzamide]: the IC50 is < 1000 nM. As for `CN(C)CCNC(=O)c1cccc(-c2cnc(N)c(-c3ccnc(Cl)c3)c2)c1` [Y-085, 3-(2-Amino-2′-chloro-[3,4′]bipyridinyl-5-yl)-N-(2-dimethylamino-ethyl)-benzamide], the IC50 was < 1000 nM. On to `CN(C)CCNC(=O)c1cccc(-c2cnc(N)c(-c3ccc(C(F)(F)F)cc3)c2)c1` [Y-069, 3-[6-Amino-5-(4-trifluoromethyl-phenyl)-pyridin-3-yl]-N-(2-dimethylamino-ethyl)-benzamide], for which the IC50 was < 1000 nM. For `CN(C)CCNC(=O)c1cccc(-c2cnc(N)c(-c3cc4ccccc4o3)c2)c1` [Y-012, 3-(6-Amino-5-benzofuran-2-yl-pyridin-3-yl)-N-(2-dimethylamino-ethyl)-benzamide], the IC50 was < 1000 nM.
